The target of one test is AT2 receptor (Homo sapiens (Human), UniProt P50052). Kind of test: AT2 Receptor Binding. The note with it: HEK293 AT2 receptor transient cell membranes, [125I]-CGP42112A. The procedure:
1. Trypsin-EDTA (for Preparation of 100 mL)
• Dissolve trypsin in 2% EDTA and PBS completely; sterilize the solution by passing through a […] membrane filter; store at 4° C.
2. DMEM Medium (for Preparation of 1 L) • The powder was dissolved into 950 mL of distilled water with gentle stirring until the solution becomes clear. • Add. NaHCO3 1.176 g for DMEM medium. • Adjust pH of medium to 0.2˜0.3 below final working pH using 1 M NaOH or 1 M • HCl. Add slowly with stirring. • Dilute to 1 liter with ddH2O. • Sterilize the medium immediately by filtration. • Store at 4° C.
3. TE Buffer • 20 mM Tris-HCl, pH 7.4, • 5 mM EDTA
4. Binding Assay Buffer • 50 mM Hepes, pH 7.4 • 5 mM MgCl2 • 1 mM CaCl2 • 0.2% BSA
5. Wash Buffer • 50 mM Hepes, pH 7.4 Procedures for HEK293AT2 Receptor Transient Cell Transfection • Cells were plated into 150 mm dish at 50% density for transient transfection. Cells were ready for transfection after overnight incubation (the confluence reaches around 80%). • 75 μL Lipofectamine™2000 diluted in 6.25 mL OptiMEM I Reduced Serum Medium, was mixed gently, and incubated at room temperature for 5 minutes. 50 μg expression plasmid DNA diluted in 6.25 mL OptiMEM I Reduced Serum Medium without serum was mixed gently. • After the 5 minute incubation, the diluted DNA was combined with the diluted Lipofectamine™2000 (total volume is 12.5 mL). The mixture was mixed gently and incubated for 30 minutes at room temperature to allow the DNA-Lipofectamine™2000 complexes to form. • The 12.5 mL DNA-Lipofectamine™2000 complexes were added into the 150 mm dish and mixed gently by rocking the dish back and forth. • The cells were incubated at 37° C. with 5% CO2 for 48 hours. Cells were collected and stored frozen at −80° C. Procedures for HEK293AT2 Receptor Cell Membrane Preparation • Frozen HEK293AT2 receptor (transient transfected) cells were homogenized in ice cold TE buffer for 10s. • The homogenate was centrifuged at 25,000 g for 30 minutes. • The pellet was resuspended in ice cold tissue buffer. • Protein concentrations were determined using Bradford assay method with BSA as standard. • The membrane protein was frozen under −80° C. Compound Preparation
Solutions of all compounds were prepared bymicroplate liquid handling equipment such as Janus or Precision 2000. Compounds, dissolved in DMSO were stored in a Freezer. Compounds were prepared from 30 mM in 100% DMSO.
Step 1: Dose Plate Preparation (96 Well Plate)
• Add the 3 μL [30 mM] compound stock to column 1 on the plate. • Add 15 μL of 100% DMSO to column 1. • Add 10.81 μL of 100% DMSO to column 2-12. • Transfer 5 μL from column 1 into column 2 (half log dilution). • Transfer 5 μL from column 2 into column 3 (half log dilution). • Transfer 5 μL from column 3 into column 4 (half log dilution). • Transfer 5 μL from column 4 into column 5 (half log dilution). • Transfer 5 μL from column 5 into column 6 (half log dilution). • Transfer 5 μL from column 6 into column 7 (half log dilution). • Transfer 5 μL from column 7 into column 8 (half log dilution). • Transfer 5 μL from column 8 into column 9 (half log dilution). • Transfer 5 μL from column 9 into column 10 (half log dilution) • Transfer 5 μL from column 10 into column 11 (half log dilution) • Transfer 5 μL from column 11 into column 12 (half log dilution).
All the compounds were diluted using Precision 2000 microplate liquid handling equipment. The top concentration of compound was 5 mM with 100% DMSO.
Step 2: Working Plate Preparation (96 Well Plate)
• Compounds were diluted 50-fold with buffer. • 49 μL buffer was added to the well of 96 well plate. • 1 μL compound solution from dose plate was transferred to the corresponding well of working plate. • The top concentration of compound was 100 μM with 2% DMSO. Step 3: Assay Plate Preparation (96 Well Plate)
15 μL of compound solution was transferred from each well of working plate to the well of assay plate by Janus.

The target of a further test is AT1 receptor (Homo sapiens (Human), UniProt P30556). Kind of test: AT1 Receptor Binding. The note with it: HEK293/AT1 receptor transient cell membranes, [125I]-Sar1-Ile8-Angiotensin II; top concentration tested 10 μM. The text has this:
The same media, solutions, cell procedures and compound preparation was used as for Biological Example 1 but using HEK293/AT1 Receptor Transient Cells.

Another test has as its system NG108-15 neurite cells. Description: AT2 Receptor Neurite Outgrowth Assay. It counts as cell-based. The note with it: NG108-15 cells, in the presence of angiotensin II 0.1 μM, compound 0.003-10 μM. The procedure: The general methodology of Wallinder (2008) and references cited therein was used to assess the effect of the compounds of the present invention on neurite outgrowth. The assay was adapted for high content screening.
EMA1087 is a known AT2 receptor agonist described as “compound 21” in Wan et al. 2004. PD-123,319 is a known, commercially available AT2 receptor antagonist. The results were analyzed by immunofluorescence quantitative analysis. Neurite outgrowth was quantified with neurite average length using Cellomics software. Results are expressed as the mean±SEM, each conducted in triplicate. Statistical significance, compared with Ang II control: *p<0.05, **p<0.01, and ***p<0.001. NS: no significant difference. ND: not determined. FIGS. 1 to 5 show neurite outgrowth was inhibited by the AT2 receptor antagonists, PD-126,055 and compounds 6, 15, 21 and 28.

Sequence of AT2 receptor (P50052 whole entry, species assumed): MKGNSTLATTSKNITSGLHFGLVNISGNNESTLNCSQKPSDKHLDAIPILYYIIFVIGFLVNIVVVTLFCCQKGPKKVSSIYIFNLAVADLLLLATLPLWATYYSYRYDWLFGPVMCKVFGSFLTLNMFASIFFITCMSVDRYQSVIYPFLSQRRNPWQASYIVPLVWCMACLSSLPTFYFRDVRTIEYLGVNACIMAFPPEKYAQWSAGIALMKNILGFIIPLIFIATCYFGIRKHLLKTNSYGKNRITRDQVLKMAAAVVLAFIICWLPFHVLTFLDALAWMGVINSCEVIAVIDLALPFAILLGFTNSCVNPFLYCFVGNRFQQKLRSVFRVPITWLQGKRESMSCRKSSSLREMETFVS
Sequence of AT1 receptor (P30556 whole entry, species assumed): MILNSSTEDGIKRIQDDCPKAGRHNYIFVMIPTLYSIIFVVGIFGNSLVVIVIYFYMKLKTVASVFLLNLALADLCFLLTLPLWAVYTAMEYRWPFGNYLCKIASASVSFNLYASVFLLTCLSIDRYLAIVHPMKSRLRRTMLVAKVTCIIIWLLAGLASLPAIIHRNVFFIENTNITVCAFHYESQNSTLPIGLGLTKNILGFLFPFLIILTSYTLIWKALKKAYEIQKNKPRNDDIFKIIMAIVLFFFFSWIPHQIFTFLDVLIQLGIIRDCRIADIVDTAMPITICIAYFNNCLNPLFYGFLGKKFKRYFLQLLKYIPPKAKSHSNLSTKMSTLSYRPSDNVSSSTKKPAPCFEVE

Broadly, the IC50 is the concentration needed to halve the response being measured. Higher therefore signals weaker potency in that assay. In general, Ki refers to the equilibrium dissociation constant of an inhibitor or competing ligand from its target. As to `CN(CCCc1ccccc1)[C@H]1C[C@@H](C(=O)O)N(C(=O)C(c2ccccc2)c2ccccc2)C1` [Compound 21, (2S,4S)-1-(2,2-diphenylacetyl)-4-(methyl(3-phenylpropyl)amino)pyrrolidine-2-carboxylic acid], at AT2 receptor, the concentration for half-maximal inhibition (IC50) was 62.1 nM. Besides, at AT1 receptor, the IC50 was more than 10000 nM and the Ki was more than 10000 nM. Moreover, the “neurite outgrowth (neurite average length)” value (shortened to “neurite outgrowth”) with NG108-15 neurite cells is “inhibited”. For `O=C(O)[C@@H]1C[C@H](N2CCOC[C@@H]2Cc2ccccc2)CN1C(=O)C(c1ccccc1)c1ccccc1` [Compound 28, (2S,4S)-4-((S)-3-benzylmorpholino)-1-(2,2-diphenylacetyl)pyrrolidine-2-carboxylic acid], the half-maximal inhibitory concentration (IC50) on AT2 receptor was found to be 86.9 nM. In the test with NG108-15 neurite cells, the “neurite outgrowth” value is reported as “inhibited”. At AT2 receptor, `O=C(O)[C@@H]1C[C@H](CS(=O)(=O)Cc2ccccc2)CN1C(=O)C(c1ccccc1)c1ccccc1` [Compound 118, (2S,4S)-4-((benzylsulfonyl)methyl)-1-(diphenylacetyl)-pyrrolidine-2-carboxylic acid] returned an IC50 of 314 nM. In the case of `O=C(O)[C@@H]1C[C@H](CS(=O)(=O)c2ccccc2)CN1C(=O)C(c1ccccc1)c1ccccc1` [Compound 119, (2S,4S)-4-((phenylsulfonyl)methyl)-1-(diphenylacetyl)-pyrrolidine-2-carboxylic acid], the IC50 at AT2 receptor amounted to 2650 nM. In the case of `O=C(O)[C@@H]1C[C@H](CSCCc2ccccc2)CN1C(=O)C(c1ccccc1)c1ccccc1` [Compound 120, (2S,4S)-1-(2,2-diphenylacetyl)-4-((phenethylthio)methyl)pyrrolidine-2-carboxylic acid], the IC50 at AT2 receptor was 1200 nM. Turning to `O=C(O)[C@@H]1C[C@H](CSCc2ccccc2)CN1C(=O)C(c1ccccc1)c1ccccc1` [Compound 121, (2S,4S)-4-((benzylthio)methyl)-1-(2,2-diphenylacetyl)pyrrolidine-2-carboxylic acid], the IC50 at AT2 receptor is 57.7 nM.

On AT2 receptor, `O=C(O)[C@@H]1C[C@H](CSc2ccccc2)CN1C(=O)C(c1ccccc1)c1ccccc1` [Compound 122, (2S,4S)-1-(2,2-diphenylacetyl)-4-((phenylthio)methyl)pyrrolidine-2-carboxylic acid] yielded a half-inhibitory concentration (IC50) of 143 nM. Still for that read-out and setting: for `O=C(O)[C@@H]1C[C@H](SCCCc2ccccc2)CN1C(=O)C(c1ccccc1)c1ccccc1` [Compound 124, (2S,4S)-1-(2,2-diphenylacetyl)-4-((3-phenylpropyl)thio)-pyrrolidine-2-carboxylic acid] the value was 363 nM; for `O=C(O)[C@@H]1C[C@H](S(=O)(=O)CCCc2ccccc2)CN1C(=O)C(c1ccccc1)c1ccccc1` [Compound 125, (2S,4S)-1-(2,2-diphenylacetyl)-4-((3-phenylpropyl)-sulfonyl)pyrrolidine-2-carboxylic acid], 1240 nM. In turn, `CN(CCOc1ccc(F)cc1)[C@H]1C[C@@H](C(=O)O)N(C(=O)C(c2ccccc2)c2ccccc2)C1` [Compound 126] had a concentration for half-maximal inhibition (IC50) at AT2 receptor of 20.5 nM.

`O=C(O)[C@@H]1C[C@H](SCCc2ccccc2)CN1C(=O)C(c1ccccc1)c1ccccc1` [Compound 131, (2S,4S)-1-(2,2-diphenylacetyl)-4-(phenethylthio)pyrrolidine-2-carboxylic acid]: on AT2 receptor, the IC50 worked out at 652 nM. For the molecule `O=C(O)[C@@H]1C[C@H](SCCCc2ccc(F)cc2)CN1C(=O)C(c1ccccc1)c1ccccc1` [Compound 133, (2S,4S)-1-(2,2-diphenylacetyl)-4((3-(4-fluorophenyl)propyl)thio)pyrrolidine-2-carboxylic acid], the IC50 at AT2 receptor amounted to 1740 nM. Against the preceding molecule, the IC50 is about 2.7-fold higher. For the molecule `O=C(O)[C@@H]1C[C@H](S(=O)(=O)CCCc2ccc(F)cc2)CN1C(=O)C(c1ccccc1)c1ccccc1` [Compound 134, (2S,4S)-1-(2,2-diphenylacetyl)-4((3-(4-fluorophenyl)propyl)sulfonyl)pyrrolidine-2-carboxylic acid], on AT2 receptor, the 50% inhibitory concentration (IC50) turned out to be 954 nM. Take `CS(=O)(=O)NC(=O)[C@@H]1C[C@H](OCCCc2ccccc2)CN1C(=O)C(c1ccccc1)c1ccccc1` [Compound 135, (2S,4S)-1-(2,2-diphenylacetyl)-N-(methylsulfonyl)-4-(phenylpropoxy)pyrrolidine-2-carboxamide]: the IC50 on AT2 receptor was 240 nM. In the case of `O=C(O)[C@@H]1C=C(c2sccc2-c2ccccc2)CN1C(=O)C(c1ccccc1)c1ccccc1` [Compound 139, (S)-1-(2,2-diphenylacetyl)-4-(3-phenylthiophen-2-yl)-2,5-dihydro-1H-pyrrole-2-carboxylic acid], the half-inhibitory concentration (IC50) at AT2 receptor stood at 2530 nM. The same measure, in the same setting: for `O=C(O)[C@@H]1C=C(C#CCCc2ccccc2)CN1C(=O)C(c1ccccc1)c1ccccc1` [Compound 140, (S)-1-(2,2-diphenylacetyl)-4-(4-phenylbut-1-yn-1-yl)-2,5-dihydro-1H-pyrrole-2-carboxylic acid] the value was 674 nM. At AT1 receptor, `COc1ccc2c(c1OCc1ccccc1)C[C@@H](C(=O)O)N(C(=O)C(c1ccccc1)c1ccccc1)C2` [PD-126,055, reference compound] returned an IC50 of more than 10000 nM and an inhibition constant Ki of more than 10000 nM. Moreover, the “neurite outgrowth” value with NG108-15 neurite cells is listed as “inhibited”.

The values above are taken from patent US9624243B2, “Heterocyclic compounds and methods of their use” (Novartis AG, priority 2012, dated 2017).
